# Like-named read-outs stand apart in the source and are kept apart here.
# Key:
# [1] = test system: genotype A, "Long" strain RSV; test: RSV-A assay (CPE protection in Hep-2 cells, ATPlite readout); type: cell-based, Human respiratory syncytial virus (HRSV); conditions: RSV-A Long strain, MOI 0.1, CPE protection, read-out: Human RSV-A (“Long”) EC50
# In short: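 Protection from RSV-induced cytopathic effect measured by ATP content (ATPlite) after 5-day culture. Infection used genotype A Long virus at MOI 0.1 on 8,000 Hep-2 cells per well, with compound serially diluted 2-fold; values are EC50.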
# [2] = test system: HMPV clinical isolate TN/1501/A1; test: HMPV antiviral assay Method-B (clinical isolate TN/1501/A1 in LLC-MK2 cells, ATP-Lite readout); type: cell-based, Human metapneumovirus (HMPV); conditions: hMPV WT1501 (clinical isolate TN/1501/A1), 6 days
# In short: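 EC50 derived by four-parameter logistic fit of percent cell health, measured by ATP-Lite luminescence and normalised to virus-only and uninfected-cell controls. Compounds run in duplicate from 10 μM top, 3-fold, 10 points. Infection: LLC-MK2 cells, MOI 0.014, 2 μg/mL final TPCK-trypsin, serum-free, 6 days at 37° C.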
# [3] = human respiratory syncytial virus
# [4] = human metapneumovirus, LLC-MK2, 144 h
Compound,"EC50 [1, 3]","EC50 [2, 4]",EC50 [1],EC50 [2]
COc1cc(C(=O)NC[C@](O)(c2cc3c(c(-c4ccc(OC(F)F)c(F)c4)n2)OC[C@]3(C)C(N)=O)C(F)(F)F)cc2cn(C3CC3)nc12 [Example 920],< 200 nM,< 500 nM,,
COc1cc(C(=O)NC[C@@](O)(c2cc3c(c(-c4cccc(Cl)c4F)n2)OC[C@]3(C)C(N)=O)C(F)(F)F)cc2cn(C3CC3)nc12 [Example 921],> 200 nM,> 500 nM,,
COc1cc(C(=O)NC[C@](O)(c2cc3c(c(-c4cccc(Cl)c4F)n2)OC[C@]3(C)C(N)=O)C(F)(F)F)cc2cn(C3CC3)nc12 [Example 922],< 200 nM,< 500 nM,,
COc1ccc(-c2nc([C@](O)(CNC(=O)c3cc(OC)c4nn(C5CC5)cc4c3)C(F)(F)F)cc3c2OC[C@]3(C)C(N)=O)cc1 [Example 923],> 200 nM,> 500 nM,,
COc1ccc(-c2nc([C@@](O)(CNC(=O)c3cc(OC)c4nn(C5CC5)cc4c3)C(F)(F)F)cc3c2OC[C@]3(C)C(N)=O)cc1 [Example 924],< 200 nM,> 500 nM,,
COc1cc(C(=O)NC[C@@](O)(c2cc3c(c(-c4ccc(OC(F)F)cc4)n2)OC[C@]3(C)C(N)=O)C(F)(F)F)cc2cn(C3CC3)nc12 [Example 925],< 200 nM,> 500 nM,,
COc1cc(C(=O)NC[C@](O)(c2cc3c(c(-c4ccc(OC(F)F)cc4)n2)OC[C@]3(C)C(N)=O)C(F)(F)F)cc2cn(C3CC3)nc12 [Example 926],< 200 nM,> 500 nM,,
COc1cc(C(=O)NCC(O)(c2cc3c(c(-c4ccc(OC(F)(F)F)c(F)c4)n2)OC[C@]3(C)C(N)=O)C(F)(F)F)cc2cn(C3CC3)nc12 (stereo partly shown) [Example 927],< 200 nM,> 500 nM,,
COc1cc(C(=O)NC[C@](O)(c2cc3c(c(-c4cccc5c4OC(F)(F)O5)n2)OC[C@]3(C)C(N)=O)C(F)(F)F)cc2cn(C3CC3)nc12 [Example 928],< 200 nM,> 500 nM,,
COc1cc(C(=O)NC[C@](O)(c2cc3c(c(-c4ccc(Cl)c(F)c4F)n2)OC[C@]3(C)C(N)=O)C(F)(F)F)cc2cn(C3CC3)nc12 [Example 929],< 200 nM,< 500 nM,,
COc1cc(C(=O)NC[C@](O)(c2cc3c(c(-c4ccc(F)c(Cl)c4F)n2)OC[C@]3(C)C(N)=O)C(F)(F)F)cc2cn(C3CC3)nc12 [Example 930],< 200 nM,< 500 nM,,
COc1cc(C(=O)NCC(O)(c2cc3c(c(-c4cc(F)c(F)c(Cl)c4)n2)OC[C@]3(C)C(N)=O)C(F)(F)F)cc2cn(C3CC3)nc12 (stereo partly shown) [Example 931],< 200 nM,< 500 nM,,
COc1cc(C(=O)NC[C@](O)(c2cc3c(c(-c4cc(F)c(Cl)cc4F)n2)OC[C@]3(C)C(N)=O)C(F)(F)F)cc2cn(C3CC3)nc12 [Example 932],< 200 nM,< 500 nM,,
COc1ccc(-c2nc([C@@](O)(CNC(=O)c3cc(OC)c4nn(C5CC5)cc4c3)C(F)(F)F)cc3c2OC[C@]3(C)C(N)=O)cc1Cl [Example 933],< 200 nM,> 500 nM,,
COc1cc(-c2nc([C@@](O)(CNC(=O)c3cc(OC)c4nn(C5CC5)cc4c3)C(F)(F)F)cc3c2OC[C@]3(C)C(N)=O)ccc1Cl [Example 934],< 200 nM,> 500 nM,,
COc1cc(C(=O)NC[C@](O)(c2cc3c(c(-c4ccc(Cl)c(Cl)c4)n2)OC[C@]3(C)C(N)=O)C(F)(F)F)cc2cn(C3CC3)nc12 [Example 935],< 200 nM,> 500 nM,,
COc1cc(C(=O)NC[C@](O)(c2cc3c(c(-c4csc5c(F)cccc45)n2)OC[C@]3(C)C(N)=O)C(F)(F)F)cc2cn(C3CC3)nc12 [Example 936],< 200 nM,< 500 nM,,
COc1cc(C(=O)NC[C@](O)(c2cc3c(c(-c4csc5c(Cl)cccc45)n2)OC[C@]3(C)C(N)=O)C(F)(F)F)cc2cn(C3CC3)nc12 [Example 937],> 200 nM,> 500 nM,,
COc1cc(C(=O)NC[C@](O)(c2cc3c(c(-c4ccc5nn(C(F)F)cc5c4)n2)OC[C@]3(C)C(N)=O)C(F)(F)F)cc2cn(C3CC3)nc12 [Example 938],> 200 nM,> 500 nM,,
COc1cc(C(=O)NC[C@](O)(c2cc3c(c(-c4ccc5c(ccn5C(F)F)c4)n2)OC[C@]3(C)C(N)=O)C(F)(F)F)cc2cn(C3CC3)nc12 [Example 939],< 200 nM,> 500 nM,,
COc1cc(C(=O)NCC(O)(c2cc3c(c(-c4ccc5ccn(C(F)F)c5c4)n2)OCC3(C)C(N)=O)C(F)(F)F)cc2cn(C3CC3)nc12 (stereo not shown) [Example 940],,,< 200 nM,> 500 nM
COc1cc(C(=O)NC[C@](O)(c2cc3c(c(-c4ccc5cn(C(F)F)nc5c4)n2)OC[C@]3(C)C(N)=O)C(F)(F)F)cc2cn(C3CC3)nc12 [Example 941],> 200 nM,> 500 nM,,

Compound,"EC50 [1, 3]","EC50 [2, 4]",EC50 [1],EC50 [2]
COc1cc(-c2nc([C@@](O)(CNC(=O)c3cc(OC)c4nn(C5CC5)cc4c3)C(F)(F)F)cc3c2OC[C@]3(C)C(N)=O)cc2cn(C(F)F)nc12 [Example 942],> 200 nM,> 500 nM,,
COc1cc(C(=O)NC[C@](O)(c2cc3c(c(-c4csc5ccccc45)n2)OC[C@]3(C)C(N)=O)C(F)(F)F)cc2cn(C3CC3)nc12 [Example 943],< 200 nM,> 500 nM,,
COc1cc(C(=O)NC[C@](O)(c2cc3c(c(-c4csc5ccc(F)cc45)n2)OC[C@]3(C)C(N)=O)C(F)(F)F)cc2cn(C3CC3)nc12 [Example 944],< 200 nM,> 500 nM,,
COc1cc(C(=O)NC[C@](O)(c2cc3c(c(-c4csc(C(F)F)c4)n2)OC[C@]3(C)C(N)=O)C(F)(F)F)cc2cn(C3CC3)nc12 [Example 945],< 200 nM,> 500 nM,,
COc1cc(C(=O)NC[C@](O)(c2cc3c(c(-c4csc(C(F)(F)F)c4)n2)OC[C@]3(C)C(N)=O)C(F)(F)F)cc2cn(C3CC3)nc12 [Example 946],< 200 nM,< 500 nM,,
COc1cc(C(=O)NC[C@](O)(c2cc3c(c(-c4cc(C(F)F)cs4)n2)OC[C@]3(C)C(N)=O)C(F)(F)F)cc2cn(C3CC3)nc12 [Example 947],< 200 nM,> 500 nM,,
COc1cc(C(=O)NC[C@](O)(c2cc3c(c(-c4ccc(C(F)F)s4)n2)OC[C@]3(C)C(N)=O)C(F)(F)F)cc2cn(C3CC3)nc12 [Example 948],< 200 nM,> 500 nM,,
COc1cc(C(=O)NC[C@](O)(c2cc3c(c(-c4cnc(C(F)(F)F)s4)n2)OC[C@]3(C)C(N)=O)C(F)(F)F)cc2cn(C3CC3)nc12 [Example 950],< 200 nM,> 500 nM,,
COc1cc(C(=O)NC[C@](O)(c2cc3c(c(-c4csc(C(F)(F)F)n4)n2)OC[C@]3(C)C(N)=O)C(F)(F)F)cc2cn(C3CC3)nc12 [Example 951],< 200 nM,< 500 nM,,
COc1cc(C(=O)NC[C@](O)(c2cc3c(c(-c4cc(Cl)c(F)cc4F)n2)OC[C@]3(C)C(N)=O)C(F)(F)F)cc2cn(C3CC3)nc12 [Example 952],< 200 nM,< 500 nM,,
COc1cc(C(=O)NC[C@@](O)(c2cc3c(c(-c4ccc5c(c4)OC(F)(F)C(F)(F)O5)n2)OC[C@]3(C)C(N)=O)C(F)(F)F)cc2cn(C3CC3)nc12 [Example 954],< 200 nM,> 500 nM,,
COc1cc(C(=O)NC[C@@](O)(c2cc3c(c(-c4ccc(F)c(Br)c4F)n2)OC[C@]3(C)C(N)=O)C(F)(F)F)cc2cn(C3CC3)nc12 [Example 955],< 200 nM,> 500 nM,,
COc1cc(C(=O)NC[C@](O)(c2cc3c(c(-c4ccc(F)c(Br)c4F)n2)OC[C@]3(C)C(N)=O)C(F)(F)F)cc2cn(C3CC3)nc12 [Example 956],< 200 nM,< 500 nM,,
COc1cc(C(=O)NC[C@](O)(c2cc3c(c(-c4c(F)cc(Cl)cc4F)n2)OC[C@]3(C)C(N)=O)C(F)(F)F)cc2cn(C3CC3)nc12 [Example 961],< 200 nM,< 500 nM,,
COc1cc(C(=O)NC[C@](O)(c2cc3c(c(-c4ccc5ccccc5c4)n2)OC[C@]3(C)C(N)=O)C(F)(F)F)cc2cn(C3CC3)nc12 [Example 965],> 200 nM,> 500 nM,,
COc1cc(C(=O)NC[C@](O)(c2cc3c(c(-c4ccc5ncccc5c4)n2)OC[C@]3(C)C(N)=O)C(F)(F)F)cc2cn(C3CC3)nc12 [Example 966],> 200 nM,> 500 nM,,
COc1cc(C(=O)NC[C@](O)(c2cc3c(c(-c4ccc5nc(C)ccc5c4)n2)OC[C@]3(C)C(N)=O)C(F)(F)F)cc2cn(C3CC3)nc12 [Example 967],> 200 nM,> 500 nM,,
COc1cc(C(=O)NC[C@](O)(c2cc3c(c(-c4cccs4)n2)OC[C@]3(C)C(N)=O)C(F)(F)F)cc2cn(C3CC3)nc12 [Example 968],> 200 nM,> 500 nM,,
COc1cc(C(=O)NC[C@](O)(c2cc3c(c(-c4ccc5[nH]ccc5c4)n2)OC[C@]3(C)C(N)=O)C(F)(F)F)cc2cn(C3CC3)nc12 [Example 969],> 200 nM,> 500 nM,,
COc1cc(C(=O)NC[C@](O)(c2cc3c(c(-c4ccc5cc[nH]c5c4)n2)OC[C@]3(C)C(N)=O)C(F)(F)F)cc2cn(C3CC3)nc12 [Example 970],> 200 nM,> 500 nM,,
COc1cc(C(=O)NC[C@](O)(c2cc3c(c(-c4ccc5c(c4)CC(=O)N5)n2)OC[C@]3(C)C(N)=O)C(F)(F)F)cc2cn(C3CC3)nc12 [Example 971],> 200 nM,> 500 nM,,
COc1cc(C(=O)NC[C@](O)(c2cc3c(c(-c4ccc(Cl)c(C(F)(F)F)c4)n2)OC[C@]3(C)C(N)=O)C(F)(F)F)cc2cn(C3CC3)nc12 [Example 972],< 200 nM,< 500 nM,,

# Source: patent US12612412B2, “Antiviral heterocyclic compounds” (Enanta Pharmaceuticals, Inc., priority 2021, dated 2026)
